Assay results published in US10941157B2, “Pesticidal compositions and uses thereof” (Gilead Apollo, LLC, priority 2015, dated 2021).
≈ marks a conversion by molar mass, not a printed value.

How the values were obtained:
Format in all cases: cell-based
[1] = tested on: Saccharomyces cerevisiae (Sc); assay: Yeast growth inhibition assay; conditions: Saccharomyces cerevisiae, ≥75% inhibition, read-out: Compound Concentration (ppm) sufficient for ≥75% inhibition, Sc
Protocol: Both tables list the concentration of each compound that was sufficient to ≥90% inhibition of growth for each of the fungal pathogens listed above. In addition, some of compounds were tested in a yeast growth inhibition assay for Saccharomyces cerevisiae (Sc). Table 2 lists the concentration of the tested compound that was sufficient to ≥75% inhibition of Saccharomyces cerevisiae (Sc).

Botrtyis cinerea (Bc) = assay: In vitro pathogen growth inhibition assay, Bc; conditions: 48 h, ≥90% inhibition; 48 hours vs 2% DMSO control; read-out: Compound Concentration (ppm) sufficient for ≥90% inhibition of growth, Bc
Method in brief: (§1)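 Spores in 17% V8 liquid medium, or 1.5 mm Rs mycelial plugs in ¼ PDB, incubated with compound; final concentration checked by OD600 for precipitation. OD readings at 24 and 48 h, blank-subtracted, plus visual ratings; value is concentration giving ≥90% growth inhibition.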

Diplodia maydis (Dm) = assay: In vitro pathogen growth inhibition assay, Dm; conditions: Stenocarpella maydis, 48 h, ≥90% inhibition; 48 hours vs 2% DMSO control; read-out: Compound Concentration (ppm) sufficient for ≥90% inhibition of growth, Dm
Method in brief: (§2)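 Value reported is the compound concentration reaching ≥90% growth inhibition, from OD readings at 24 and 48 h after blank subtraction, confirmed visually. Inoculum was spores diluted in 17% V8 medium, except Rs, using 1.5 mm mycelial plugs in ¼ PDB; actual compound concentration corrected via OD600.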

[2] = tested on: Fusarium virguliforme (Fv); assay: In vitro pathogen growth inhibition assay, Fv; conditions: ≥90% inhibition, 48 hours vs 2% DMSO control, read-out: Compound Concentration (ppm) sufficient for ≥90% inhibition of growth, Fv
Method in brief: as §2

Rhizoctonia solani (Rs) = assay: In vitro pathogen growth inhibition assay, Rs (mycelial plugs); conditions: Rhizoctonia solani, 48 h, ≥90% inhibition; mycelial plugs; 48 hours vs 2% DMSO control; read-out: Compound Concentration (ppm) sufficient for ≥90% inhibition of growth, Rs
Method in brief: as §2

[3] = tested on: Collectotrichum graminicola (Cg); assay: In vitro pathogen growth inhibition assay, Cg; conditions: 48 h, ≥90% inhibition; 48 hours vs 2% DMSO control; read-out: Compound Concentration (ppm) sufficient for ≥90% inhibition of growth, Cg
Method in brief: as §1

Septoria tritici (St) = assay: In vitro pathogen growth inhibition assay, St; conditions: Zymoseptoria tritici, 48 h, ≥90% inhibition; 48 hours vs 2% DMSO control; read-out: Compound Concentration (ppm) sufficient for ≥90% inhibition of growth, St
Method in brief: as §1

[4] = tested on: Fusarium moniliforme (Fm); assay: In vitro pathogen growth inhibition assay, Fm; conditions: Fusarium verticillioides; ≥90% inhibition; 48 hours vs 2% DMSO control; read-out: Compound Concentration (ppm) sufficient for ≥90% inhibition of growth, Fm
Method in brief: as §1

[5] = tested on: Phytophthora capsici (Pc); assay: In vitro pathogen growth inhibition assay, Pc; conditions: 48 h, ≥90% inhibition, 48 hours vs 2% DMSO control, read-out: Compound Concentration (ppm) sufficient for ≥90% inhibition of growth, Pc
Method in brief: as §2

IC90 (Botrtyis cinerea (Bc)) [µg/mL] | IC90 (Diplodia maydis (Dm)) [µg/mL] | IC90 [2] [µg/mL] | IC90 (Rhizoctonia solani (Rs)) [µg/mL] | IC90 [3] [µg/mL] | IC90 (Septoria tritici (St)) [µg/mL] | IC90 [4] [µg/mL] | IC90 [5] [µg/mL] | SMILES | IC75 [1] [µg/mL]
≥ 0.4 | 2 (≈ 3.52 µM) | 0.4 (≈ 0.703 µM) | 50 (≈ 87.9 µM) | ≥ 2 | > 10 | 0.08 (≈ 0.141 µM) | > 50 | COc1ccccc1[C@H](Cn1c(=O)n(C(C)(C)C(=O)NC(C)C)c(=O)c2c(C)c(-c3ncco3)sc21)OC(C)C [Compound I-001] | 1.2 (≈ 2.11 µM)
0.4 (≈ 0.628 µM) | 2 (≈ 3.14 µM) | 2 (≈ 3.14 µM) | 10 (≈ 15.7 µM) | 2 (≈ 3.14 µM) | > 10 | 0.08 (≈ 0.126 µM) | > 50 | COc1ccccc1[C@H](Cn1c(=O)n(C(C)(C)C(=O)N2CCCCC2)c(=O)c2c(C)c(-c3ncco3)sc21)OC1CCOCC1 [Compound I-004] | 3.7 (≈ 5.81 µM)
2 (≈ 3.21 µM) | 2 (≈ 3.21 µM) | 2 (≈ 3.21 µM) | 0.4 (≈ 0.642 µM) | 2 (≈ 3.21 µM) | > 10 | 0.08 (≈ 0.128 µM) | > 50 | COc1ccccc1[C@H](Cn1c(=O)n(C(C)(C)C(=O)N2CCCC2)c(=O)c2c(C)c(-c3ncco3)sc21)OC1CCOCC1 [Compound I-005] | 0.4 (≈ 0.642 µM)
0.4 (≈ 0.667 µM) | 0.4 (≈ 0.667 µM) | 0.4 (≈ 0.667 µM) | 0.4 (≈ 0.667 µM) | 0.4 (≈ 0.667 µM) | ≥ 2 | 0.08 (≈ 0.133 µM) | > 50 | CCOC(=O)c1sc2c(c1C)c(=O)n(C(C)(C)C(=O)N1CCCCC1)c(=O)n2C[C@H](OC(C)C)c1ccccc1OC [Compound I-006] | 1.2 (≈ 2 µM)
0.4 (≈ 0.683 µM) | 0.4 (≈ 0.683 µM) | 0.4 (≈ 0.683 µM) | 0.08 (≈ 0.137 µM) | 0.4 (≈ 0.683 µM) | ≥ 2 | 0.08 (≈ 0.137 µM) | > 50 | CCOC(=O)c1sc2c(c1C)c(=O)n(C(C)(C)C(=O)N1CCCC1)c(=O)n2C[C@H](OC(C)C)c1ccccc1OC [Compound I-007] | 0.4 (≈ 0.683 µM)
0.4 (≈ 0.65 µM) | 2 (≈ 3.25 µM) | 2 (≈ 3.25 µM) | 10 (≈ 16.2 µM) | 2 (≈ 3.25 µM) | > 10 | 0.08 (≈ 0.13 µM) | > 50 | CCOC(=O)c1sc2c(c1C)c(=O)n(C(C)(C)C(=O)NC(C)C)c(=O)n2C[C@H](OC1CCOCC1)c1ccccc1OC [Compound I-008] | 3.7 (≈ 6.01 µM)
0.4 (≈ 0.697 µM) | 0.4 (≈ 0.697 µM) | 0.4 (≈ 0.697 µM) | 10 (≈ 17.4 µM) | 2 (≈ 3.49 µM) | > 50 | 0.08 (≈ 0.139 µM) | > 50 | CCOC(=O)c1sc2c(c1C)c(=O)n(C(C)(C)C(=O)NC(C)C)c(=O)n2C[C@H](OC(C)C)c1ccccc1OC [Compound I-009] | 3.7 (≈ 6.45 µM)
